Patent US9498420B2, “Cosmetic compositions and methods for inhibiting melanin synthesis” (The Procter & Gamble Company, priority 2013, dated 2016)

Test system: B16-F1 mouse melanoma cells
Assay: Melanin Synthesis Assay
Assay type: cell-based
Protocol: A B16-F1 mouse melanoma cell line may be employed as an assay to measure melanin synthesis. The B16-F1 cells may be obtained from […], Virginia, USA. The cell culture medium that may be used in the assay may comprise 500 mL of Dulbecco's Modified Eagle's Medium (DMEM), 50 mL Fetal Bovine Serum (FBS), and 5 mL of penicillin-streptomycin liquid. B16-F1 cells that are cultured in this medium and grown to greater than 90% confluency synthesize melanin. While not intending to be bound by any theory, it is hypothesized that melanin synthesis is stimulated by the culture medium and/or stress induced by growth to a high confluency. The DMEM and FBS can be obtained from […] and the penicillin-streptomycin liquid can be obtained from Invitrogen, Inc., California, USA. Equipment used in the assay include a CO2 incubator, such as a Forma Series Model 3110 by Therma Scientific, Massachusetts, USA; a hemocytometer, such as a Bright Line model by Hauser Scientific, Pennsylvania, USA; and a UV-Visible Spectrum Plate Reader, such as a SpectraMax250 from Molecular Devices, California, USA. The assay steps may include: Day 0—Cell Growth: Warm the cell culture medium to 37° C. and place 29 mL into a T-150 flask. Add approximately 1×10^6 of B16-F1 passage 1 mouse cells to the T-150 flask and incubate for 3 days at 37° C., 5% CO2, 90% relative humidity, until ˜80% confluency; Day 3—Initiate a 96 Well Plate: At day 3, trypsinize the cells from the T-150 flask and determine the concentration of cells using a hemocytometer. Initiate a 96 well plate with 2,500 cells per well in 100 microliters of cell culture medium. […] Read the 96 well plate using the UV-Vis Plate Reader at 410 nm to optically measure the amount of melanin produced between wells that are treated with [test compound] and control wells that are not treated with a test compound. […] Percentage of melanin synthesis inhibition is calculated by the following equation: [formula] Where OD410 is the Optical Density at 410 nm as measured by the UV-Vis Spectrum Plate Reader. […]

| SMILES | reduction in the production of melanin as compared to Sample 4 (HD/UP/Nia) (Table 1 concentrations, B16-F1 mouse melanoma cells, statistical comparison) | Average Melanin % Inhibition (Table 2, B16-F1 cells, where present: 0.03% batyl alcohol, 0.003% bisabolol, 0.0005% hexyldecanol, 0.0001% undecylenoyl phenylalanine, 0.0005% niacinamide) | reduction in the production of melanin as compared to Sample 9 (HD/UP/Nia) (Table 2 concentrations, mouse melanoma cells, statistical comparison) |
| --- | --- | --- | --- |
| CC(C)=CCC[C@](C)(O)[C@@H]1CC=C(C)CC1 [Sample 1, bisabolol] | did not significantly reduce | – | – |
| CCCCCCCCCCCCCCCCCCOCC(O)CO (stereo not drawn) [Sample 8, batyl alcohol] | – | 7% | did not significantly reduce |
